Marks after values point to notes of the source that are not given here.
Assays:
Format in all cases: cell-based
[1] = system: neutrophils in diluted human blood; experiment: fMLP-induced neutrophil aggregation in diluted human blood; conditions: 1 mM [sic] HETE, fMLP 5×10^−7 M, N = 3 to 4
[2] = system: thrombin-stimulated human neutrophils; experiment: Thrombin-stimulated neutrophil adhesion to gelatin matrix
Method: (§1) Venous blood (60-70 ml) was collected from four healthy, normal volunteers into syringes containing heparin (1 U/ml). Polymorphonuclear leukocytes (PMNs) were isolated by a histopaque density gradient technique as previously described in Liu et al., Adhesion, Its role in Inflammatory Disease, Freeman and Co., New York, 1992, pp 189-192. Briefly, blood aliquots (6 ml) were layered over two layers (3 ml) of histopaque 1077 and 1119 in a conical centrifuge tube. The sample was then subjected to centrifugation at 100×g for 30 minutes at room temperature and the top layer, containing the neutrophils, was carefully collected. Hypotonic lysis was used to separate out the red blood cells. The neutrophils were then isolated from the sample by centrifugation (2000×g) and suspended in Hanks balanced salt solution (HBSS) containing 1 mM Ca^+ and 0.8 mM Mg^+ for studies involving arachidonic acid metabolism, and in M199 (with 1% BSA) for neutrophil adhesion assays. Total cells were counted using a hemocytometer and leukocytes were counted after staining with Wright-Giemsa stain. For each experiment, the cell preparations used contain ≧97% neutrophils, having ≧95% viability as determined by a trypan blue exclusion assay.
Isolated neutrophils were resuspended in M199 containing 1% BSA with a final concentration of 3×10^6 cells per ml. Cells suspensions (1 ml) were incubated with or without a test compound, 16(S)-HETE, 16(R)-HETE, or 20-HETE (concentrations 0.01 to 10 μM) for 10 min and then placed into gelatin-coated wells and further incubated for 20 min at 37° C. The wells were washed three times with 0.5 ml of solution M199 to remove non-adherent cells. The adherent cells were then removed by addition of 0.4 ml of 0.25% trypsin-EDTA in 0.1 M PBS to the gelatin-coated wells and incubation for 10 min at 37° C. The incubates were transferred and the wells were washed with 0.1 ml of M199 solution. The amount of cells in combined solutions was counted. […] The inhibition of adhesion was expressed as percent of cells remaining in suspension (non-adherent) relative to control. […]

platelets [3] = experiment: ATP release from ADP-stimulated platelets; conditions: 1 μM, ADP 5 μM, n=3, mean±sem
Text: (§2) Platelet aggregation was examined in diluted whole blood using a Chronolog whole blood aggregometer (Havertown, Pa.) as previously described (Bednar, M. M.; Dooley, R. H.; Zamani, M.; Howard, D. B.; and Gross, C. E. Neutrophil and platelet activity and quantification following delayed t-PA therapy in a rabbit model of thromboembolic stroke. J. Thromb. Thrombol. 1:179-185 (1995). Briefly, whole blood was collected in 3.8% sodium citrate (9:1, v/v) and was subsequently diluted 50:50 with normal saline. Aggregation was assessed over a 6 minute interval following addition of a submaximal concentration of adenosine diphosphate (ADP, 5 μM: Sigma Corporation, St. Louis, Mo.). Aggregation was then repeated following a ten minute incubation with either 1 μM or 16(R)-HETE or 16(S)-HETE and expressed as the change in impedance as a percentage of the baseline value. Adenosine triphosphate (ATP) release was simultaneously measured from ADP-stimulated platelets in the Chronolog whole blood aggregometer using the Chrono-Lume luminescent agent (firefly luciferin-luciferase). Samples were compared to chemiluminescence obtained from ATP standards following the addition of luciferin-luciferase.

platelets [4] = experiment: ADP-induced platelet aggregation in diluted whole blood; conditions: 1 μM, ten minute incubation, ADP 5 μM, n=3, mean±sem
Text: as §2

[5] = system: neutrophils in diluted human blood; experiment: fMLP-stimulated oxygen free radical release (luminol chemiluminescence) in diluted human blood; conditions: for OFR Release (percent of inhibition from HETE untreated cells): 1 mM [sic] HETE, fMLP 5×10^−7 M, chemiluminescence, N = 3 to 4
Method: Stimulated neutrophil aggregation and oxygen free radical release were examined in whole human blood using a whole-blood aggregometer-chemiluminometer (Chronolog, Haverton, Pa.) as described in Bednar et al. J. Thromb. Thrombol. 1, 179-185 (1995). Briefly, blood samples containing heparin (1 U/ml) as the anticoagulant were diluted in HBSS in proportion 1 to 9. […] Neutrophils were stimulated with a submaximal dose of fMLP (5×10^−7M final concentration). The aggregation and chemiluminescence were simultaneously measured as changes of impedance and luminescence, respectively. The fMLP-induced chemiluminescence was calculated as the peak height of the reaction.

basal human neutrophils = experiment: Basal neutrophil adhesion to gelatin matrix
Method: as §1
Isolated neutrophils were resuspended in M199 containing 1% BSA with a final concentration of 3×10^6 cells per ml. Cells suspensions (1 ml) were incubated with or without a test compound, 16(S)-HETE, 16(R)-HETE, or 20-HETE (concentrations 0.01 to 10 μM) for 10 min and then placed into gelatin-coated wells and further incubated for 20 min at 37° C. The wells were washed three times with 0.5 ml of solution M199 to remove non-adherent cells. The adherent cells were then removed by addition of 0.4 ml of 0.25% trypsin-EDTA in 0.1 M PBS to the gelatin-coated wells and incubation for 10 min at 37° C. The incubates were transferred and the wells were washed with 0.1 ml of M199 solution. The amount of cells in combined solutions was counted. In some experiments, the adhesion of neutrophils was stimulated by addition of 1 U/ml of thrombin to neutrophil suspension immediately prior to the transfer of cells to the wells. Experiments were performed in duplicates for each concentration of HETE. The inhibition of adhesion was expressed as percent of cells remaining in suspension (non-adherent) relative to control. The range of adherent PMNs in control incubations was 6 to 23%. This was increased two-fold in the presence of thrombin.

[6] = system: neutrophils in diluted human blood; experiment: fMLP-induced neutrophil aggregation in diluted human blood; conditions: for inhibition of neutrophil aggregation: no concentration given; for Aggregation (percent of inhibition from HETE untreated cells): 1 µM compound, N = 4
Method: Stimulated neutrophil aggregation and oxygen free radical release were examined in whole human blood using a whole-blood aggregometer-chemiluminometer (Chronolog, Haverton, Pa.) as described in Bednar et al. J. Thromb. Thrombol. 1, 179-185 (1995). Briefly, blood samples containing heparin (1 U/ml) as the anticoagulant were diluted in HBSS in proportion 1 to 9. Diluted blood aliquots (1 ml) were stirred (400 rpm) in a prewarmed (37° C.) siliconized cuvette containing cytochalasin b (5 μg/ml) and luminol (in 8 μl DMSO, 500 μM final concentration) and the test HETE (concentration 0.01 to 10 μM) for 10 min. Neutrophils were stimulated with a submaximal dose of fMLP (5×10^−7M final concentration). The aggregation and chemiluminescence were simultaneously measured as changes of impedance and luminescence, respectively. The fMLP-induced chemiluminescence was calculated as the peak height of the reaction.
The methods were performed as described above in Example 3.

human neutrophils = experiment: Agonist activity on human neutrophils; conditions: concentrations ≦20 μM
[7] = system: LTB4 synthesis in neutrophils; experiment: Neutrophil LTB4 production stimulated by fMLP; conditions: 1 μM, 10 min preincubation, fMLP 5×10^−7 M; fMLP alone 92.8±27.1, unstimulated 49.9±24.2; n=4
Method: 16(R)-HETE (0.01-1.0 μM) was preincubated for 10 minutes with the neutrophil suspension (3×10^6/ml) prior to the addition of formyl-methionyl-leucyl-phenylalanine (fMLP). Samples were then incubated for an additional 10 minutes with 5×10^−7M fMLP. All incubations took place at 37° C. Plasma samples for the measurement of LTB4 were collected by centrifugation of the whole blood samples at 1200 rpm for 15 minutes. Samples were stored at […] until analyzed. The plasma was then acidified to pH3 with 1M Hcl. The plasma was then placed on C2 reverse phase columns (Amprep for Amersham Corp., Arlington Heights, Ill.) to extract LTB4. LTB4 was then measured using the Biotrak LTB4 enzyme immunoassay system (Amersham Corp., Arlington Heights, Ill.). All standards and samples were performed in duplicate. Following incubation, all samples were read at 450 nm and the LTB4 concentration in each sample was determined following the generation of a standard curve. LTB4 concentration was expressed as picograms LTB4 per 1000 neutrophils.

[8] = concentrations of one micromolar, four observations per compound

Question: Which results are given for `CCCC[C@H](O)/C=C\C/C=C\C/C=C\C/C=C\CCCC(=O)O` [16(S)-HETE]?
Answer: Aggregation (percent of inhibition from HETE untreated cells) [1]: 7.0 ± 3.5%; inhibition of thrombin-stimulated neutrophil adhesion ([2]; 1 μM, thrombin 1 U/ml, 3×10^6 cells/ml): 40±14%; ATP release from ADP-stimulated platelets, % of the control sample (platelets [3]): 108.0±6.8%; ADP-induced platelet aggregation, % of the control value (platelets [4]): 101.3±14.0%; OFR Release (percent of inhibition from HETE untreated cells) [5]: 5.6 ± 16.7%; inhibition of basal neutrophil adhesion (basal human neutrophils; 1 μM, 10 min preincubation, unstimulated neutrophils, gelatin matrix): 39±8%; inhibition of fMLP-induced neutrophil aggregation ([6]; concentrations of ≦10 μM): not active

Question: For `O=C(O)CCC/C=C\C/C=C\C/C=C\C/C=C\CCCCCO` [20-HETE], which “Aggregation (percent of inhibition from HETE untreated cells)” value [1] is on record?
Answer: Its value is 8.1 ± 2.6%.

Question: What about the “inhibition of neutrophil adhesion, stimulated conditions” value ([2]; concentrations ≦10 μM) of the same molecule?
Answer: The value was “did not inhibit”.

Question: And the “OFR Release (percent of inhibition from HETE untreated cells)” value [5]?
Answer: Its value is 3.9 ± 13.4%.

Question: And the “activity in assay of luminol chemiluminescence” value ([5]; concentrations up to 1 μM)?
Answer: The value was “no activity”.

Question: And the “agonist activity on human neutrophils” value (human neutrophils)?
Answer: Its value is “no detectable agonist activity”.

Question: And the “activity in assay of neutrophil adhesion” value (basal human neutrophils; concentrations up to 1 μM)?
Answer: Its value is “no activity”.

Question: And the “inhibition of neutrophil adhesion, basal conditions” value (basal human neutrophils; concentrations ≦10 μM)?
Answer: Its value is “did not inhibit”.

Question: And the “inhibition of fMLP-induced neutrophil aggregation” value ([6]; concentrations of ≦10 μM)?
Answer: Its value is “not active”.

Question: And the “activity in assay of neutrophil aggregation” value ([6]; concentrations up to 1 μM)?
Answer: Its value is “no activity”.

Question: What about the “inhibition of neutrophil aggregation” value [6] of the same molecule?
Answer: Its value is “neither 20-HETE nor 15-HETE inhibited”.

Question: “5,6,14,15-Dehydro-8,9,11,12-tetrahydro-16(R)-HETE” was tested. Which “Aggregation (percent of inhibition from HETE untreated cells)” value [6] did it give?
Answer: The value was 79.4 +/− 12.2%.

Question: With `CCCCC[C@H](O)/C=C/C=C\C/C=C\C/C=C\CCCC(=O)O` [15-HETE] as the molecule, how does the “inhibition of neutrophil aggregation” value [6] read?
Answer: Its value is “neither 20-HETE nor 15-HETE inhibited”.

Question: How did the “Aggregation (percent of inhibition from HETE untreated cells)” value [6] turn out when `CCCCC(O)/C=C\C/C=C\C/C=C\C/C=C\CCCC(=O)NS(C)(=O)=O` [16(R)-HETE sulfonimide, N-methylsulfonyl-16-hydroxyeicosa-5,8,11,14-(Z)-tetraenamide] was run?
Answer: Its value is 47.6 +/− 20.5* percent.

Question: What about the “inhibition of fMLP-induced neutrophil aggregation” value [6, 8] of the same molecule?
Answer: The value was “slightly lower activity than 16-HETE (R)”.

Question: How did the “Aggregation (percent of inhibition from HETE untreated cells)” value [1] turn out when `CCCC[C@@H](O)C=CCC=CCC=CCC=CCCCC(=O)O` [16(R)-HETE, 16(R)-hydroxy-5,8,11,14-eicosatetraenoic acid] was run?
Answer: The value was 42.0 ± 11.0%.

Question: And the inhibition at 1 µM ([2]; Homo sapiens, Neutrophil, 1 μM, thrombin 1 U/ml, 3×10^6 cells/ml)?
Answer: Its inhibition at 1 µM is 50 ± 4%.

Question: And the “ATP release from ADP-stimulated platelets, % of the control sample” value (platelets [3])?
Answer: The value was 99.3±0.7%.

Question: What about the “ADP-induced platelet aggregation, % of the control value” (platelets [4]) of the same molecule?
Answer: The value was 85.9±21.4%.

Question: What about the “OFR Release (percent of inhibition from HETE untreated cells)” value [5] of the same molecule?
Answer: The value was 8.9 ± 5.1%.

Question: And the inhibition at 1 µM (basal human neutrophils; Homo sapiens, Neutrophil, 1 μM, 10 min preincubation, unstimulated neutrophils, gelatin matrix)?
Answer: The inhibition at 1 µM was 73 ± 11%.

Question: And the “inhibition of neutrophil adhesion to gelatin” value (basal human neutrophils; preincubation with 10 μM)?
Answer: The value was “completely inhibited”.

Question: And the “Aggregation (percent of inhibition from HETE untreated cells)” value [6]?
Answer: The value was 42.0 ± 11.0%.

Question: And the IC50 ([6]; Homo sapiens, Neutrophil, fMLP 5×10^−7 M, read-out: IC50, inhibition of fMLP-induced neutrophil aggregation)?
Answer: The IC50 was 1200 nM.

Question: And the “inhibition of fMLP-induced neutrophil aggregation” value [6, 8]?
Answer: The value was “inhibited”.

Question: What about the LTB4 synthesis [7] of the same molecule?
Answer: The LTB4 synthesis was 17.0±3.2 pg/1000 neutrophils.

Question: Which “Aggregation (percent of inhibition from HETE untreated cells)” value [6] does the source give for C(1)-hydroxyl 16-HETE here?
Answer: Its value is 84.6 +/− 11.4%.

Question: How did the “Aggregation (percent of inhibition from HETE untreated cells)” value [6] turn out when `CCCC[C@@H](O)CCCCCCCCCCCCCCC(=O)O` [5,6,8,9,11,12,14,15-octahydro-16(R)-HETE] was run?
Answer: The value was 122.8 +/− 15.4%.

Question: How did the “Aggregation (percent of inhibition from HETE untreated cells)” value [6] turn out when `CCCC[C@@H](O)/C=C\CCCCCCC/C=C\CCCC(=O)O` [8,9,11,12-tetrahydro-16(R)-HETE] was run?
Answer: The value was 71.1 +/− 10.3* percent.

Source: patent US6903135B2, “Methods and products related to 16-HETE analogs” (Board of Regents, The University of Texas System, priority 1998, dated 2005)
